Assay results taken from US8017727B2, “Conjugates of membrane translocating agents and pharmaceutically active agents” (Merrion Research III Limited, priority 1999, dated 2011).
In brackets after ≈: the same amount, converted by molar mass. Read-outs that look alike come from different tables or passages of the source. Non-standard residues stand in square brackets, D forms with d. Residues, ends and D or L forms follow the SMILES beside them.

How the values were obtained:
[1] = Systemic 3H bioavailability of kappa peptide conjugates, conscious rat model (plasma); format: in vivo, Wistar rats; conditions: intraduodenal (ID), 100 μCi; for bioavailability: rat, plasma, potency corrected, read-out: Absolute 3H bioavailability
Method: The possible enhancing effects of ELAN094 and ELAN207 MTLPs (SEQ ID NOs 2 and 60) on intestinal absorption of the kappa peptide were examined in a conscious rat model.
The study was non-randomised, parallel group design. Wistar rats within the 250-350 g weight range were used. All animals were fasted for a period of 16 h prior to study initiation. Water was available at all times.
Intravenous injection of 10 μCi of ^3H-kappa peptide-Kaffiralin-1 (plain kappa peptide) (tail vein injection).
Intraduodenal instillation of 100 μCi of ^3H-kappa peptide-Elan094 (Analysed). The Elan094 ligand contains a membrane translocating sequence.
Intraduodenal instillation of 100 μCi of ^3H-kappa peptide-Elan207 (Analysed). The Elan207 ligand contains a membrane translocating sequence.
Intraduodenal instillation of 100 μCi of ^3H-kappa peptide-Kaffiralin-1.
The plasma (100-250 μl) was made up to 1 ml with BTS-450 (an organic tissue solubiliser) and incubated for 1 hour. Ten ml of Scintillation fluid was added and the radioactivity was measured.
The study was a non-randomised, parallel group biostudy designed to evaluate the systemic bioavailability of tritium labelled kappa peptide conjugates after intra-duodenal instillation in the conscious rat model. Each rat only received one treatment and the plasma samples were analysed for tritium content. The calculation of AUClast, Amax, tmax, Volume of Distribution (V d) and Clearance was based on base line corrected data. The absolute bioavailability was calculated using potency corrected data.

Caco-2 cell monolayers = experiment: Permeability of tritiated kappa peptide conjugates through differentiated Caco-2 cell monolayers; format: in vitro ADME, human; conditions: n=5
Method: Highest transport values were obtained in the first 30 min followed by a 2-4 fold decrease at 60 min. The significance of these findings is unclear. The data may be indicative of dual binding/uptake events occurring through i) a kappa receptor specific mechanism and ii) direct membrane interaction through lipid interaction of the membrane permeable peptide.

[2] = 3H tissue distribution of kappa peptide conjugates, conscious rat model; format: in vivo, Wistar rats; conditions: ID, 100 μCi, potency corrected
Method: The tissue was weighed and a representative sample, (ca 0.1 g), was removed to a scintillation vial. The tissue was solubilzed with 1 ml of BTS-450 (an organic tissue solubliser). Ten ml of scintillation fluid was added and the radioactivity was measured. The radioactivity was expressed as dpm/initial weight of tissue.

Caco-2 monolayers [3] = experiment: Transport of reporter molecule 3H-fMLP across Caco-2 monolayers; format: cell-based, human; conditions: for % inhibition 3H-fMLP transport: flux measured over 2 h
Method: The effect of the MTLPs ZElan094, ZElan178 and ZElan187 (SEQ ID NOS: 2, 7 and 16) and of the targeting peptide ZElan022 (U.S. patent application Ser. Nos. 09/079,819, 09/079,723 AND 09/079,678, AND PCT A[…]/US98/10088, PUBLISHED AS WO 98/51325) on the transport of the dipeptide ^14C-gly-sar and of the reporter molecule ^3H-fMLP across Caco-2 monolayers was determined. The Caco-2 monolayers were grown on Transwell-Snapwells. Cell viability was determined by measuring TEER of the Caco-2 monolayers during each experiment. No significant drop in TEER was measured. Cell permeability was determined by measuring mannitol flux across the Caco-2 monolayers during each experiment. No increase in mannitol flux was measured in the presence of the MTLP ZElan094.
The flux of the dipeptide ^14C-gly-sar and of the reporter molecule ^3H-fMLP across the Caco-2 monolayers in the absence and in the presence of the MTLPs ZElan094, ZElan178 and ZElan187 (SEQ ID NOS: 2, 7 and 16) and of the targeting peptide ZElan022 (U.S. patent application Ser. Nos. 09/079,819, 09/079,723 AND 09/079,678), AND PCT A[…]/US98/10088, PUBLISHED AS WO 98/51325 was measured over 2 h, and reduction in the permeability coefficient was determined in the presence of cold substrates.
Caco-2 monolayers were grown and tested for viability as in Example 11. Transport of ^3H-fMLP across Caco-2 monolyers was measured in the presence from 0 to 200 μg/ml of the MTLP ZElan094.

Caco-2 monolayers [4] = experiment: Transport of dipeptide 14C-gly-sar across Caco-2 monolayers; format: cell-based, human; design: key to % inhibition 14C-gly-sar transport: NS: no significant difference between experimental (+MTLP) and control cells (−MTLP) in the transport of radiolabeled drug; conditions: flux measured over 2 h
Method: The effect of the MTLPs ZElan094, ZElan178 and ZElan187 (SEQ ID NOS: 2, 7 and 16) and of the targeting peptide ZElan022 (U.S. patent application Ser. Nos. 09/079,819, 09/079,723 AND 09/079,678, AND PCT APPLICATION PCT/US98/10088, PUBLISHED AS WO 98/51325) on the transport of the dipeptide ^14C-gly-sar and of the reporter molecule ^3H-fMLP across Caco-2 monolayers was determined. The Caco-2 monolayers were grown on Transwell-Snapwells. Cell viability was determined by measuring TEER of the Caco-2 monolayers during each experiment. No significant drop in TEER was measured. Cell permeability was determined by measuring mannitol flux across the Caco-2 monolayers during each experiment. No increase in mannitol flux was measured in the presence of the MTLP ZElan094.
The flux of the dipeptide ^14C-gly-sar and of the reporter molecule ^3H-fMLP across the Caco-2 monolayers in the absence and in the presence of the MTLPs ZElan094, ZElan178 and ZElan187 (SEQ ID NOS: 2, 7 and 16) and of the targeting peptide ZElan022 (U.S. patent application Ser. Nos. 09/079,819, 09/079,723 AND 09/079,678), AND PCT APPLICATION PCT/US98/10088, PUBLISHED AS WO 98/51325 was measured over 2 h, and reduction in the permeability coefficient was determined in the presence of cold substrates.

[5] = Solubility of ZElan094 (physical characteristics); format: physicochemical; conditions: water
Caco-2 cells = experiment: Delivery of DNA from MTLP coated liposomes into Caco-2 cells (β-galactosidase expression); format: cell-based, human; conditions: versus lipofectamine+DNA and lipofectamine+DNA+protamine control liposomes
Method: DNA delivery into Caco-2 cells from liposomes and from MTLP coated liposomes was calculated as β-galactosidase expression per mg of total protein in the cell supernatant. β-galactosidase expression was determined using the Boehringer Mannheim chemiluminescence kit. Protein was determined using the Pierce Micro bichinconate (BCA) protein assay.
Caco-2 cells were plated at 1×10^5 cells/well in 1 ml of culture media and incubated at 37° C. in 5% CO2 overnight. The cells were washed twice in 0.5 ml of optiMEM. ZElan094, 204N or 204 (SEQ ID NOS: 2, 23, 24) (Solution 4, Example 9) were each added to triplicate wells (250 μl/well) of the washed cells and incubated for 4 h at 37° C. After 4 h, 250 μl of optiMEM containing 2× fetal calf serum was added and the cells were incubated for an additional 20 h at 37° C. At 24 h post-transfection, the cells were lysed with Boehringer Mannheim Lysis Buffer. The lysate was centrifuged for 2 min at 14,000 rpm in an Eppendorf Centrifiguge and the supernatant was collected.

Which “3H AUClast” value ([1]; (Repeat) group) does the source give for `CC[C@@H](C)[C@@H](NC(=O)[C@@H](Cc1ccccc1)NC(=O)[C@@H](Cc1ccccc1)NC(=O)[C@@H](CCCCN)NC(=O)[C@H]1CCCN1C(=O)[C@@H](C)NC(=O)[C@@H](C)NC(=O)[C@@H](CC(C)C)NC(=O)[C@@H](CC(C)C)NC(=O)[C@H](NC(=O)[C@H]1CCCN1C(=O)[C@@H](CC(C)C)NC(=O)[C@@H](CC(C)C)NC(=O)[C@H](NC(=O)[C@@H](C)NC(=O)[C@@H](C)NC(=O)[C@@H](C)NC(=O)[C@@H](CCCCN)NC(=O)[C@H](N)CCCCN)C(C)C)C(C)C)C(=O)N[C@H](CCCNC(=N)N)C(N)=O` [3H-Kappa peptide-Elan 207] (H-[dK][dK][dA][dA][dA][dV][dL][dL][dP][dV][dL][dL][dA][dA][dP][dK][dF][dF][dI][dR]-NH2; N-terminus and C-terminus assumed) here?
The value was 249021.32±37503.78 dpm/ml·h.

What about the “3H Amax (maximum radioactivity)” value ([1]; (Repeat) group) of the same compound?
The value was 201464.40±44854.19 dpm/ml.

What about the “fold increase in absolute 3H bioavailability versus kappa peptide without ligand” value ([1]; (Repeat) group) of the same compound?
Its value is “approx. 2 fold”.

And the “3H AUClast” value ([1]; Elan207 = original group)?
Its value is 162743.70±13549.10 dpm/ml·h.

What about the “3H Amax (maximum radioactivity)” value ([1]; Elan207 = original group) of the same compound?
Its value is 100041.17±6274.57 dpm/ml.

And the “fold increase in absolute 3H bioavailability versus kappa peptide without ligand” value ([1]; listed as Elan207 MTLP)?
The value was greater than 1.5 fold.

What about the bioavailability ([1]; (Repeat) group) of the same compound?
The bioavailability was 16.6 ± 2.5%.

And the bioavailability ([1]; Elan207 = original group)?
The bioavailability was 11.5 ± 0.96%.

What about the “permeability compared to the kappa peptide control” value (Caco-2 cell monolayers) of the same compound?
Its value is “No significant increase”.

And the “Catheter, % of administered dose” value [2]?
The value was 0.14 ± 0.09%.

And the “GI Tissue, % of administered dose” value [2]?
The value was 4.08 ± 2.47%.

What about the “GI Washing, % of administered dose” value [2] of the same compound?
The value was 9.60 ± 16.65%.

What about the “GI contents, % of administered dose” value [2] of the same compound?
Its value is 26.34 ± 17.00%.

What about the “Liver, % of administered dose” value [2] of the same compound?
The value was 0.47 ± 0.20%.

And the “Total GI (% recovery from GI tissue, GI contents & GI wash)” value [2]?
The value was 40.03 ± 23.23%.

What about the “Kidney, % of administered dose” value ([2]; t=6 h) of the same compound?
Its value is 0.17 ± 0.07%.

And the “Plasma, % of administered dose” value ([2]; t=6 h)?
Its value is 0.10 ± 0.01%.

What about the “Total Recovery, % of administered dose” value ([2]; t=6 h) of the same compound?
Its value is 40.91 ± 23.32%.

What about the “Plasma, % of administered dose” value ([2]; t=6 h, listed as 3H-Kappa peptide Elan207) of the same compound?
The value was 0.10±0.01%.

With `CC(C)C[C@H](NC(=O)[C@H](CC(C)C)NC(=O)[C@@H](NC(=O)[C@@H]1CCCN1C(=O)[C@H](CC(C)C)NC(=O)[C@H](CC(C)C)NC(=O)[C@@H](NC(=O)[C@H](C)NC(=O)[C@H](C)NC(=O)[C@H](C)NC(=O)[C@H](CCCCN)NC(=O)[C@H](CCCCN)NC(=O)[C@@H](N)CCCCNS(=O)(=O)c1cccc2c(N(C)C)cccc12)C(C)C)C(C)C)C(=O)N[C@@H](C)C(=O)N[C@@H](C)C(=O)N1CCC[C@H]1C(N)=O` [ZElan094] as the compound, how does the “% inhibition 3H-fMLP transport” value (Caco-2 monolayers [3]; listed as 094) read?
The value was 77.2%.

And the “% inhibition 3H-fMLP transport” value (Caco-2 monolayers [3]; listed as ZElan 094)?
The value was “inhibited transport”.

What about the “inhibition of 3H-fMLP transport” value (Caco-2 monolayers [3]; range 0 to 200 μg/ml) of the same compound?
Its value is “inhibited”.

What about the “% inhibition 14C-gly-sar transport” value (Caco-2 monolayers [4]) of the same compound?
Its value is “NS”.

And the “inhibition of 14C-gly-sar transport” value (Caco-2 monolayers [4])?
The value was “did not inhibit transport”.

And the solubility [5]?
The solubility was 1000 µg/mL (≈ 545 µM).

Which “DNA delivery into and expression within Caco-2 cells” value (Caco-2 cells) does the source give for “H-K(ε-dansyl)AAVLLPVLLAAKKKRKA-NH2 ({K(dansyl)}-AAVLLPVLLAAKKKRKA-NH2) [ZElan204N]” here?
The value was “most effective”.
